Test results: publication PMC4131466, “Antidepressant Fluoxetine Modulates the In Vitro Inhibitory Activity of Buffalo Brain Cystatin: A Thermodynamic Study Using UV and Fluorescence Techniques” (Biotechnology Research International, 2014)

Target: T1, buffalo brain cystatin (BC)
T1 construct: gene CST3
Experiment: intrinsic fluorescence quenching, log-log plot
Assay type: binding, Bubalus bubalis
Settings: 1 μM BC, 50 mM sodium phosphate pH 7.5, 298 K, 30 min incubation, excitation 280 nm; n = 0.79
Excerpt: intrinsic fluorescence quenching, log-log plot on buffalo brain cystatin (BC)

CNCCC(Oc1ccc(C(F)(F)F)cc1)c1ccccc1 (stereo not shown) [Fluoxetine]
K (binding constant) mol^-1: 5.0317e+06 mol⁻¹
